Results taken from ChEMBL document CHEMBL3124892, “Polyphenols bearing cinnamaldehyde scaffold showing cell growth inhibitory effects on the cisplatin-resistant A2780/Cis ovarian cancer cells” (Bioorg Med Chem, 2014).
Active and inactive are the calls of the source. The calls are words filed in the database; no cut-off is given here.

Columns and labels:
[1] = Growth inhibition of cisplatin-resistant human A2780cis cells after 7 days by crystal violet staining based clonogenic assay; assay type: functional; settings: A2780cisR, 168 h
A2780cisR [2] = test: Induction of apoptosis in cisplatin-resistant human A2780cis cells assessed as shrunken and fragmented nuclei with condensed chromatin at 20 uM after 24 hrs by TO-PRO-3 iodide staining based immunofluorescent microscopy; assay type: functional, cell-based
A2780cisR [3] = test: Induction of apoptosis in cisplatin-resistant human A2780cis cells assessed as PARP cleavage at 20 uM after 24 hrs by western blot analysis; assay type: functional, cell-based
A2780cisR [4] = test: Induction of apoptosis in cisplatin-resistant human A2780cis cells assessed as increase in cleaved active caspase-7 level at 20 uM after 24 hrs by immunofluorescent microscopy; assay type: functional, cell-based
A2780cisR [5] = test: Induction of apoptosis in cisplatin-resistant human A2780cis cells assessed as stimulation of caspase 7 cleavage at 20 uM after 24 hrs by western blot analysis; assay type: functional, cell-based
[6] = Cell cycle arrest in cisplatin-resistant human A2780cis cells assessed as accumulation at G2/M phase at 20 uM after 24 hrs by propidium iodide staining based flow cytometry (reference value: 29.47%); assay type: functional; settings: A2780cisR
[7] = Cell cycle arrest in cisplatin-resistant human A2780cis cells assessed as accumulation at S phase at 20 uM after 24 hrs by propidium iodide staining based flow cytometry (reference value: 17.24%); assay type: functional; settings: A2780cisR
[8] = Cell cycle arrest in cisplatin-resistant human A2780cis cells assessed as accumulation at G1 phase at 20 uM after 24 hrs by propidium iodide staining based flow cytometry (reference value: 45.33%); assay type: functional; settings: A2780cisR
[9] = Cell cycle arrest in cisplatin-resistant human A2780cis cells assessed as accumulation at sub-G1 phase at 20 uM after 24 hrs by propidium iodide staining based flow cytometry (reference value: 7.76%); assay type: functional; settings: A2780cisR
A2780cisR [10] = test: Antiproliferative activity against cisplatin-resistant human A2780cis cells after 24 to 48 hrs by cell counting kit-8 analysis; assay type: functional, cell-based
A2780cisR [11] = test: Antiproliferative activity against cisplatin-resistant human A2780cis cells at 1 to 20 uM by cell counting kit-8 analysis; assay type: functional, cell-based; settings: TDE = time-dependent effect
Aurora kinase A = target: T1, Aurora kinase A (Homo sapiens, UniProt O14965); test: Inhibition of human aurora A kinase using LRRASLG as substrate by scintillation counting in presence of [gamma-33P]ATP
T1 sequence (O14965 whole entry): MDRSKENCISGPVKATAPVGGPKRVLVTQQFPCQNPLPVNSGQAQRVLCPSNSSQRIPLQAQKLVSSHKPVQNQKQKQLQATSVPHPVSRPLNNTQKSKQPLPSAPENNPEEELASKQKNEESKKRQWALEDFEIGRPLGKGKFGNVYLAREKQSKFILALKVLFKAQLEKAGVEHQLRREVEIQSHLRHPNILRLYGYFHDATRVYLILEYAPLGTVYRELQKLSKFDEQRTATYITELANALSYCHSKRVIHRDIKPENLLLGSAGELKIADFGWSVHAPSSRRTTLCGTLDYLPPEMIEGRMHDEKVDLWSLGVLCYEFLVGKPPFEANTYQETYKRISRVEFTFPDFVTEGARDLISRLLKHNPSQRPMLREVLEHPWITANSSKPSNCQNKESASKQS

Structure (SMILES)	GI50 ([1]; read-out: GI50)	GI50 ([1]; read-out: pGI50 (converted))	also measured
COc1cc(OC)c(OC)cc1/C=C/C(=O)c1c(O)cccc1OC	19.2 µM	19.1 µM	–
COc1ccc(O)c(C(=O)/C=C/c2cccc(OC)c2OC)c1	17 µM	17 µM	–
COc1ccccc1/C=C/C(=O)c1ccccc1O	11.7 µM	11.8 µM	–
COc1ccc(/C=C/C(=O)c2c(O)cccc2OC)c(OC)c1	9.55 µM	9.57 µM	–
COc1ccc2c(c1)OCC(C=O)=C2	> 20 µM	20 µM	–
COc1ccc2c(c1)C=C(C(C)=O)CO2	> 20 µM	20 µM	–
COc1ccc2c(c1)OCC(C(C)=O)=C2	> 20 µM	20 µM	–
COc1cccc(/C=C/C(=O)c2ccccc2O)c1OC	14.4 µM	14.5 µM	–
COc1cc(OC)c(/C=C/C(=O)c2cc(OC)ccc2O)c(OC)c1	3.95 µM	3.99 µM	Activity (A2780cisR [2]): Active; Activity (A2780cisR [3]): Active; Activity (A2780cisR [4]): Active; Activity (A2780cisR [5]): Active; Activity [6]: 68.3%; Activity [7]: 4.09%; Activity [8]: 3.53%; Activity [9]: 16.5%; Activity (A2780cisR [10]): Dose-dependent effect; Activity (A2780cisR [11]): tde
COc1ccc(/C=C/C(=O)c2cc(OC)ccc2O)c(OC)c1	19.8 µM	20 µM	–
COc1cccc(/C=C/C(=O)c2c(O)cccc2OC)c1OC	9.67 µM	9.8 µM	–
COc1cccc(/C=C/C(=O)c2cc(OC)ccc2O)c1	10.1 µM	10.3 µM	–
COc1ccccc1/C=C/C(=O)c1c(O)cccc1OC	9.55 µM	9.57 µM	–
COc1ccc(/C=C/C(=O)c2c(O)cccc2OC)c(OC)c1OC	18.4 µM	18.2 µM	–
COc1ccc(/C=C/C(=O)c2ccccc2O)c(OC)c1OC	14.3 µM	14.5 µM	–
COc1cccc(/C=C/C(=O)c2c(O)cccc2OC)c1	9.64 µM	9.57 µM	–
COc1cc(/C=C/C(=O)c2cc(OC)ccc2O)cc(OC)c1	11.3 µM	11.2 µM	–
COc1ccc(O)c(C(=O)/C=C/c2cc(OC)c(OC)cc2OC)c1	> 20 µM	20 µM	–
COc1ccc2c(c1)C=C(C=O)CO2	> 20 µM	20 µM	–
COc1ccc(/C=C/C(=O)c2ccccc2O)c(OC)c1	15 µM	14.8 µM	–
COc1cc(/C=C/C(=O)c2c(O)cccc2OC)cc(OC)c1	11.4 µM	11.5 µM	–
COc1cc(OC)c(/C=C/C(=O)c2c(O)cccc2OC)c(OC)c1	3.87 µM	3.9 µM	IC50 (Aurora kinase A): 66.4 µM; Activity (A2780cisR [3]): Active; Activity (A2780cisR [5]): Active; Activity [6]: 71%; Activity [7]: 4.33%; Activity [8]: 3.36%; Activity [9]: 17.1%; Activity (A2780cisR [10]): Dose-dependent effect; Activity (A2780cisR [11]): tde
COc1ccc(/C=C/C(=O)c2ccccc2O)cc1	15.9 µM	15.9 µM	–
COc1ccc(/C=C/C(=O)c2c(O)cccc2OC)cc1	15.4 µM	15.5 µM	–
O=C(/C=C/c1ccccc1)c1ccccc1O [2'-HYDROXYCHALCONE]	13.5 µM	13.5 µM	–
COc1cc(/C=C/C(=O)c2ccccc2O)cc(OC)c1	13.7 µM	13.8 µM	–
